Assay results from PMC5428509, “Irreversible inhibition of BTK kinase by a novel highly selective inhibitor CHMFL-BTK-11 suppresses inflammatory response in rheumatoid arthritis model” (Scientific Reports, 2017).

Columns and labels:
Assay in all cases: biochemical
Set-up in all cases: KinomeScan competition binding panel (DiscoveRx), percent of control at 1 uM
Settings in all cases: read-out: Percent Control
PFCDPK1(P.falciparum) = biological target: T1, PFCDPK1(P.falciparum) (Plasmodium falciparum, UniProt P62344)
T1 construct: gene CDPK1

KIT = KIT (Homo sapiens, UniProt P10721)
In short: (§1)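 KinomeScan technology used to profile binding across a panel of 456 kinases and mutants.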

CDK8 = CDK8 (Homo sapiens, UniProt P49336)
Sequence of CDK8 (P49336 whole entry): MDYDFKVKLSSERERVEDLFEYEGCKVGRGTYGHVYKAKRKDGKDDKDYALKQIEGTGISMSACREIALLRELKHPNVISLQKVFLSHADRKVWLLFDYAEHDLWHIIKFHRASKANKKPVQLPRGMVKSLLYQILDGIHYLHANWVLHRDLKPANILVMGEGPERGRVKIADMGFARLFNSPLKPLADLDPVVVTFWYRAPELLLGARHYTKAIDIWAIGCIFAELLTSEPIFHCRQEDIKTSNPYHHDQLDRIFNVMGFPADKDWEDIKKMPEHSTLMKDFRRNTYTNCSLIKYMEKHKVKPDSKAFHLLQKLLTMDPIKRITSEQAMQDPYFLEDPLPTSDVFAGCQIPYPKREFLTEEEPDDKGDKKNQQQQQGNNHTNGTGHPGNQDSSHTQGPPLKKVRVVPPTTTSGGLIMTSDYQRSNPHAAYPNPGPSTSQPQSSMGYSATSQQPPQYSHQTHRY
In short: as §1

BMPR1B = BMPR1B (Homo sapiens, UniProt O00238)
In short: as §1

MKNK2 = MKNK2 (Homo sapiens, UniProt Q9HBH9)
In short: as §1

ACVR2A = ACVR2A (Homo sapiens, UniProt P27037)
In short: as §1

TAOK2 = TAOK2 (Homo sapiens, UniProt Q9UL54)
In short: as §1

LIMK2 = LIMK2 (Homo sapiens, UniProt P53671)
Sequence of LIMK2 (P53671 whole entry): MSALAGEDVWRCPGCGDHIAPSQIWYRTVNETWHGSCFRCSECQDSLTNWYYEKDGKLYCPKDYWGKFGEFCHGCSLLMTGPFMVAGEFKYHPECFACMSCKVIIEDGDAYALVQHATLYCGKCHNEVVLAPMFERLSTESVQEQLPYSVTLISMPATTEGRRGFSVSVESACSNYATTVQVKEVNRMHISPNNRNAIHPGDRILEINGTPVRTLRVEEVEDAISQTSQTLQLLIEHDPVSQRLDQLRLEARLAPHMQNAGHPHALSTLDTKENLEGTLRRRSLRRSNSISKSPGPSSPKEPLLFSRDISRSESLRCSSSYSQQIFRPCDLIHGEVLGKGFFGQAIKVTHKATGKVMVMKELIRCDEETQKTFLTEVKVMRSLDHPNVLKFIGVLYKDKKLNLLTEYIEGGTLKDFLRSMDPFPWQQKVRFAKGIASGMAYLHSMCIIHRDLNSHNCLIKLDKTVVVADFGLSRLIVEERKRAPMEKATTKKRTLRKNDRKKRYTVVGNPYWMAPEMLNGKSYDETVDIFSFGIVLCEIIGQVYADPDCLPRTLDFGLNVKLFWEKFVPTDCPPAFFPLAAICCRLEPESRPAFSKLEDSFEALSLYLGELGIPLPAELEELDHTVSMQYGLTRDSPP
In short: as §1

ERK2 = biological target: T2, ERK2 (Homo sapiens, UniProt P28482)
T2 construct: gene MAPK1
T2 sequence (P28482 whole entry): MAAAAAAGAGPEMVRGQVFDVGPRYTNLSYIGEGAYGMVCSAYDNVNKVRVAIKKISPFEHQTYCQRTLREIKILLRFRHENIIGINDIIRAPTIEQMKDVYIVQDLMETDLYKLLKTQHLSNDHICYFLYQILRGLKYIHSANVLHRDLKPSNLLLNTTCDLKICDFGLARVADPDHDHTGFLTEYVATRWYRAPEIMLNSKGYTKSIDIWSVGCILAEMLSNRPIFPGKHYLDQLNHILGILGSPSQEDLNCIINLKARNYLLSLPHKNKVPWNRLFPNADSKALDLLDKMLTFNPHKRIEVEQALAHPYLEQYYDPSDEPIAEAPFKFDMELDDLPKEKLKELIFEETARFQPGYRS
In short: as §1

DYRK1B = DYRK1B (Homo sapiens, UniProt Q9Y463)
Sequence of DYRK1B (Q9Y463 whole entry): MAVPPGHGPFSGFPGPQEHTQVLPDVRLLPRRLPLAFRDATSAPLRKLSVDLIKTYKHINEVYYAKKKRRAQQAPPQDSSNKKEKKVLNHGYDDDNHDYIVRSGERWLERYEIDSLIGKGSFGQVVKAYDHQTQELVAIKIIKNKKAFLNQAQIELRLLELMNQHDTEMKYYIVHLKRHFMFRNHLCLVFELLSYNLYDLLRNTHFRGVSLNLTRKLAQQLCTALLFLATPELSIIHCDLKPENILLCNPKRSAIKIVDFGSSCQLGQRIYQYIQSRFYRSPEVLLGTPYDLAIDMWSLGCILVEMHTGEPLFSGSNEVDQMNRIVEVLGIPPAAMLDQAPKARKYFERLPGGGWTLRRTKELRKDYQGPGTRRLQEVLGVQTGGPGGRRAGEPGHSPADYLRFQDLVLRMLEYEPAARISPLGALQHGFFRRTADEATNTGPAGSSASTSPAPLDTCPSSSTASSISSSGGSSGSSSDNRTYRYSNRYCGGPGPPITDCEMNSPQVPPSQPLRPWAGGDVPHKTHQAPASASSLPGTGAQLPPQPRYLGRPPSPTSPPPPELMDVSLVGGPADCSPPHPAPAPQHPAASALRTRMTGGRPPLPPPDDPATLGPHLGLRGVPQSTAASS
In short: as §1

S6K1 = biological target: T3, S6K1 (Homo sapiens, UniProt P23443)
T3 construct: gene RPS6KB1
In short: as §1

MARK3 = MARK3 (Homo sapiens, UniProt P27448)
Sequence of MARK3 (P27448 whole entry): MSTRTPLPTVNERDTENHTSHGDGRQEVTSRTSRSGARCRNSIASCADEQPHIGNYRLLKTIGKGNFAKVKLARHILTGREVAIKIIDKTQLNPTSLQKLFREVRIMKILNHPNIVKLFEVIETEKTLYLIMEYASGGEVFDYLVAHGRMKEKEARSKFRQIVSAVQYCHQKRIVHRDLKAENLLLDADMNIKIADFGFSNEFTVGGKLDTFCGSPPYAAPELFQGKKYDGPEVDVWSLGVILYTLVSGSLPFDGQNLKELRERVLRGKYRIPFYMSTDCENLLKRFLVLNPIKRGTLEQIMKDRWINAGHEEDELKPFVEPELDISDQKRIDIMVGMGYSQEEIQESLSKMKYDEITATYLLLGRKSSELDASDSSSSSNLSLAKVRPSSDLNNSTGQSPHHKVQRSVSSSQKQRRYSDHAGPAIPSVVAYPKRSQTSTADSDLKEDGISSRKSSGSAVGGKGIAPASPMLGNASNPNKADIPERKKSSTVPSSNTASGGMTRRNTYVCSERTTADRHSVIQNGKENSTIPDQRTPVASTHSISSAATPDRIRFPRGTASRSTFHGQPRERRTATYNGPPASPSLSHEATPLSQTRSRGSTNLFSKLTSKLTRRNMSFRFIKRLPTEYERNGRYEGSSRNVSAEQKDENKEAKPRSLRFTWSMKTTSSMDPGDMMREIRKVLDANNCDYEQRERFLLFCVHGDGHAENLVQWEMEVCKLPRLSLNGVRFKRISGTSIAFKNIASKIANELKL
In short: as §1

FER = FER (Homo sapiens, UniProt P16591)
In short: as §1

ALK = ALK (Homo sapiens, UniProt Q9UM73)
In short: as §1

CAMK4 = CAMK4 (Homo sapiens, UniProt Q16566)
Sequence of CAMK4 (Q16566 whole entry): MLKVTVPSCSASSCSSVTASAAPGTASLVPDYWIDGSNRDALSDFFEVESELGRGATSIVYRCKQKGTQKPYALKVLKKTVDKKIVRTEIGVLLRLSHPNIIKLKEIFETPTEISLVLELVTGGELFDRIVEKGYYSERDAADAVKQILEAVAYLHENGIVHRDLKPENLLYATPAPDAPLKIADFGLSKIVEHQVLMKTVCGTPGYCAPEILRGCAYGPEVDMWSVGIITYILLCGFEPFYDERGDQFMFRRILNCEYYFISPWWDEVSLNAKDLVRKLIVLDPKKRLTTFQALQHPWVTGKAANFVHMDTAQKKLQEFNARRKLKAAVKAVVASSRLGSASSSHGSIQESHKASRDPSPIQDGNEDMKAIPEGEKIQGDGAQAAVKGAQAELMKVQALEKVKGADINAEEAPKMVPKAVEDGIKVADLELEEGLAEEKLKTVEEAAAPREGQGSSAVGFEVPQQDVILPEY
In short: as §1

HIPK4 = HIPK4 (Homo sapiens, UniProt Q8NE63)
In short: as §1

[1] = biological target: T4, RPS6KA5(Kin.Dom.1-N-terminal) (Homo sapiens, UniProt O75582)
T4 construct: Kin.Dom.1-N-terminal
In short: as §1

MAP4K3 = MAP4K3 (Homo sapiens, UniProt Q8IVH8)
Sequence of MAP4K3 (Q8IVH8 whole entry): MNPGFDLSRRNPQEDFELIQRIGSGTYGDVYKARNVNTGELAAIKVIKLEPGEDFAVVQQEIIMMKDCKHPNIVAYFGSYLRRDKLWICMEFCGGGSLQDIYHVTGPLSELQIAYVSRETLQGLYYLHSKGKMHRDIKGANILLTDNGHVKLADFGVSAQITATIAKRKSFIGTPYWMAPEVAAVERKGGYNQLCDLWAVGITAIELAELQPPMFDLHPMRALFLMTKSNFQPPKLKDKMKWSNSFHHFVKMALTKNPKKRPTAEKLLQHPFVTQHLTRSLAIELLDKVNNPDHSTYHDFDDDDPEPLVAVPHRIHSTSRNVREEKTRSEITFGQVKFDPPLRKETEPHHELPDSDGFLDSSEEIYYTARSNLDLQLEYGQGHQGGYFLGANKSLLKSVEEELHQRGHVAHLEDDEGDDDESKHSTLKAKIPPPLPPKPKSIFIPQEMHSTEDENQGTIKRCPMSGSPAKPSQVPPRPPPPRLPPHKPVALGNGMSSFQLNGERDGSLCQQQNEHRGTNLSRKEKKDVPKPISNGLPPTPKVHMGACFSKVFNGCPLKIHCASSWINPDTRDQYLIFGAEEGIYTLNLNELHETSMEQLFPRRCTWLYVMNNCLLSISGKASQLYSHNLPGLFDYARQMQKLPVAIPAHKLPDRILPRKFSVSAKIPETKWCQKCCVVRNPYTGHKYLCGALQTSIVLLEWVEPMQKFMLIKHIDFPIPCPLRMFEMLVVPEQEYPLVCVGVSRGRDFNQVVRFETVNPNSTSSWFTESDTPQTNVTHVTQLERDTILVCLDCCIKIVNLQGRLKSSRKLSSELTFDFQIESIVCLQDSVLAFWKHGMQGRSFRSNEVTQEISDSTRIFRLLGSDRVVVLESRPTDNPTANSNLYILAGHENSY
In short: as §1

NEK6 = NEK6 (Homo sapiens, UniProt Q9HC98)
Sequence of NEK6 (Q9HC98 whole entry): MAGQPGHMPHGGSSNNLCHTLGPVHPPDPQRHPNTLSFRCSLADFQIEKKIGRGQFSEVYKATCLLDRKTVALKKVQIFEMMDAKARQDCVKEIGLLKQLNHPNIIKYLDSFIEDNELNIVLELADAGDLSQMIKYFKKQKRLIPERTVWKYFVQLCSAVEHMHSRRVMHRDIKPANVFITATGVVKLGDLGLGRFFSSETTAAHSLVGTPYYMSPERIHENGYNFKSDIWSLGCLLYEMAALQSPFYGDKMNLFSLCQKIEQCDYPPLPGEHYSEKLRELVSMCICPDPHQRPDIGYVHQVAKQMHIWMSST
In short: as §1

ASK2 = biological target: T5, ASK2 (Homo sapiens, UniProt O95382)
T5 construct: gene MAP3K6
In short: as §1

PFPK5(P.falciparum) = biological target: T6, PFPK5(P.falciparum) (Plasmodium falciparum, UniProt P61075)
T6 construct: gene CRK2
T6 sequence (P61075 whole entry): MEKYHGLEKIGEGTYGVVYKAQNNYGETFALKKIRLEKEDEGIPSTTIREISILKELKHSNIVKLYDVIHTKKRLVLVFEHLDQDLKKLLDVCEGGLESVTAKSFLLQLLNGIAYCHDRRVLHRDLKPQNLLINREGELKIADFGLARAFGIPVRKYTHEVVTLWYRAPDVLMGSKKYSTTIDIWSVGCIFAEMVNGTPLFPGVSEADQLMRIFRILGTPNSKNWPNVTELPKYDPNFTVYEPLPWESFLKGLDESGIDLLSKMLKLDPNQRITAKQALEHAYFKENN

For `C=CC(=O)Nc1cc(-n2c(=O)ccc3cnc4ccc(-n5cccn5)cc4c32)ccc1C` [CHMFL-BTK-11], the remaining binding at 1 µM (PFCDPK1(P.falciparum)) was 97%, the remaining binding at 1 µM (KIT) was 100% and the remaining binding at 1 µM (CDK8) was 91%. For the same molecule, the remaining binding at 1 µM (BMPR1B) was 97%, the remaining binding at 1 µM (MKNK2) was 98% and the remaining binding at 1 µM (ACVR2A) was 100%. It also gave a remaining binding at 1 µM (TAOK2) of 91%, a remaining binding at 1 µM (LIMK2) of 100% and a remaining binding at 1 µM (ERK2) of 100%. For the same molecule, the remaining binding at 1 µM (DYRK1B) was 65%, the remaining binding at 1 µM (S6K1) was 100% and the remaining binding at 1 µM (MARK3) was 100%. For the same molecule, the remaining binding at 1 µM (FER) was 98%, the remaining binding at 1 µM (ALK) was 100% and the remaining binding at 1 µM (CAMK4) was 91%. The remaining binding at 1 µM (HIPK4) was 94%, the remaining binding at 1 µM [1] was 94% and the remaining binding at 1 µM (MAP4K3) was 100%. It also gave a remaining binding at 1 µM (NEK6) of 100%, a remaining binding at 1 µM (ASK2) of 100% and a remaining binding at 1 µM (PFPK5(P.falciparum)) of 100%.
